In brackets after ≈: the same amount, converted by molar mass.
Assays:
Enterococcus faecalis = test: In vitro Antibacterial activity of compound against Enterococcus faecalis 1; assay type: functional
Staphylococcus aureus [1] = test: In vitro Antibacterial activity of compound against Staphylococcus aureus Oxford; assay type: functional
[2] = biological target: Methionine--tRNA ligase (Enterococcus faecalis (strain ATCC 700802 / V583)) (UniProt Q837B3); test: In vitro Antibacterial activity of compound against Enterococcus faecalis; assay type: functional
Enterococcus faecium = test: In vitro Antibacterial activity of compound against Enterococcus faecium
Staphylococcus aureus [3] = test: In vitro Antibacterial activity of compound against Staphylococcus aureus
[4] = tested on: Staphylococcus epidermidis; test: In vitro Antibacterial activity of compound against Staphylococcus epidermidis
[5] = biological target: Methionine--tRNA ligase (Enterococcus faecalis (strain ATCC 700802 / V583)) (UniProt Q837B3); test: In vitro Antibacterial activity of compound against Enterococcus faecalis 7; assay type: functional

Sequence of Methionine--tRNA ligase (Enterococcus faecalis (strain ATCC 700802 / V583)) (Q837B3 whole entry): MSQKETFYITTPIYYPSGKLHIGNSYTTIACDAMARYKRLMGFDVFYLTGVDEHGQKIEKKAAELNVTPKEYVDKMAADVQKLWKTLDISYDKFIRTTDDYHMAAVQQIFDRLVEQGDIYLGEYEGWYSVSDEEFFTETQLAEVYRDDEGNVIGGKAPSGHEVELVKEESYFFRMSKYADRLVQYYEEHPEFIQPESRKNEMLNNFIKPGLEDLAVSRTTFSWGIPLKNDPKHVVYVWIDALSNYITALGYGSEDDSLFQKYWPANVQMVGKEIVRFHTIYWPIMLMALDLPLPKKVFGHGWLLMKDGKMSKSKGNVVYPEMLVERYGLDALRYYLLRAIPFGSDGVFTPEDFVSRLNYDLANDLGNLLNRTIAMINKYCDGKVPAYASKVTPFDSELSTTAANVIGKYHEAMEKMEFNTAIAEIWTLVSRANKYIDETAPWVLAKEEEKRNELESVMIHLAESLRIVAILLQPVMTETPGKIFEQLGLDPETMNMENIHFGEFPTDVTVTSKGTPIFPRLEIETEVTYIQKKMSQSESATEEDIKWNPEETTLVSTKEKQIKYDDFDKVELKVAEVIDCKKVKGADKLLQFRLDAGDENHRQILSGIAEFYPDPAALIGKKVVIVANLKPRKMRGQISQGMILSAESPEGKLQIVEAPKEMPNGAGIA

SMILES	MIC (Enterococcus faecalis)	MIC (Staphylococcus aureus [1])	further results
CCOc1c(I)cc(Br)cc1CNCCCNc1cc(O)c2ccccc2n1	< 0.06 µg/mL	< 0.06 µg/mL	–
Cc1cc(Br)c2c(c1)C(NCCCNc1cc(O)c3ccccc3n1)CCN2 (centres undefined)	0.25 µg/mL (≈ 0.566 µM)	1 µg/mL (≈ 2.27 µM)	–
CCOc1c(CNCCCNc2cc(O)c3ccccc3n2)cc(Br)cc1SC	1 µg/mL (≈ 2.1 µM)	0.5 µg/mL (≈ 1.05 µM)	–
Oc1cc(NCCCSCc2ccc(Cl)c(Cl)c2)nc2ccccc12	> 64 µg/mL	> 64 µg/mL	–
CCOc1c(CNCCCNc2cc(=O)c3ccccc3[nH]2)cc(I)cc1C(C)(C)C	8 µg/mL (≈ 15 µM)	32 µg/mL (≈ 60 µM)	–
Oc1cc(NCCCNCc2cc(Cl)ccc2Cl)nc2ccccc12	16 µg/mL (≈ 42.5 µM)	4 µg/mL (≈ 10.6 µM)	–
CCOC(=O)c1cc(I)cc(CNCCCNc2cc(O)c3ccccc3n2)c1OCC	8 µg/mL (≈ 14.6 µM)	32 µg/mL (≈ 58.2 µM)	–
CCOc1c(Br)cc(C)cc1CNCCCNc1cc(O)c2ccccc2n1	0.25 µg/mL (≈ 0.563 µM)	2 µg/mL (≈ 4.5 µM)	–
Oc1cc(NCCCNC2COc3c(Cl)cc(Cl)cc32)nc2ccccc12 (centres undefined)	0.125 µg/mL (≈ 0.309 µM)	2 µg/mL (≈ 4.95 µM)	–
CCOc1c(Br)cc(Br)cc1CNCCCNc1cc(O)c2ccccc2n1	< 0.06 µg/mL	< 0.06 µg/mL	–
CCOc1c(Cl)cc(OC)cc1CNCCCNc1cc(O)c2ccccc2n1	< 0.06 µg/mL	0.25 µg/mL (≈ 0.601 µM)	–
C=CCc1cc(I)cc(CNCCCNc2cc(O)c3ccccc3n2)c1OCC	1 µg/mL (≈ 1.93 µM)	0.13 µg/mL (≈ 0.251 µM)	–
CCOc1c(Br)cc(OC)cc1CNCCCNc1cc(O)c2ccccc2n1	< 0.06 µg/mL	0.13 µg/mL (≈ 0.282 µM)	MIC90 [2]: 0.06 µg/mL (≈ 0.13 µM); MIC90 (Enterococcus faecium): 0.03 µg/mL (≈ 0.0652 µM); MIC90 (Staphylococcus aureus [3]): 2 µg/mL (≈ 4.34 µM); MIC90 [4]: 2 µg/mL (≈ 4.34 µM)
Oc1cc(NCCCNC2CCNc3c(Cl)cc(Br)cc32)nc2ccccc12 (centres undefined)	< 0.06 µg/mL	< 0.06 µg/mL	–
CCOc1c(I)cc(OC)cc1CNCCCNc1cc(O)c2ccccc2n1	0.13 µg/mL (≈ 0.256 µM)	0.5 µg/mL (≈ 0.985 µM)	–
CCOc1c(I)cc(CO)cc1CNCCCNc1cc(O)c2ccccc2n1	> 64 µg/mL	> 64 µg/mL	–
CCOc1c(CNCCCNc2cc(O)c3ccccc3n2)cc(Br)cc1OC	2 µg/mL (≈ 4.34 µM)	4 µg/mL (≈ 8.69 µM)	–
CCOc1c(Cl)cc(Cl)cc1CNCCCNc1cc(O)c2ccccc2n1	< 0.06 µg/mL	0.13 µg/mL (≈ 0.309 µM)	MIC90 [2]: 0.06 µg/mL (≈ 0.143 µM); MIC90 (Enterococcus faecium): < 0.016 µg/mL; MIC90 (Staphylococcus aureus [3]): 2 µg/mL (≈ 4.76 µM); MIC90 [4]: 2 µg/mL (≈ 4.76 µM)
CCOc1c(C)cc(SC)cc1CNCCCNc1cc(O)c2ccccc2n1	< 0.06 µg/mL	< 0.06 µg/mL	–
CCOc1c(C)cc(I)cc1CNCCCNc1cc(O)c2ccccc2n1	< 0.06 µg/mL	< 0.06 µg/mL	–
Oc1cc(NCCCNCc2ccc(Cl)cc2Cl)nc2ccccc12	–	4 µg/mL (≈ 10.6 µM)	MIC [5]: 4 µg/mL (≈ 10.6 µM)
CCOc1c(Br)cc(I)cc1CNCCCNc1cc(O)c2ccccc2n1	< 0.06 µg/mL	< 0.06 µg/mL	–

SMILES	MIC (Enterococcus faecalis)	MIC (Staphylococcus aureus [1])	further results
O=c1cc(NCCCNCc2ccc(Cl)c(Cl)c2)[nH]c2ccccc12	2 µg/mL (≈ 5.32 µM)	4 µg/mL (≈ 10.6 µM)	–
Oc1cc(NCCCOCc2ccc(Cl)c(Cl)c2)nc2ccccc12	> 64 µg/mL	> 64 µg/mL	–
CCOc1c(Br)cc([S+](C)[O-])cc1CNCCCNc1cc(O)c2ccccc2n1 (centres undefined)	2 µg/mL (≈ 4.06 µM)	4 µg/mL (≈ 8.12 µM)	–
Oc1cc(NCCCNC2CCNc3c(Br)cc(Br)cc32)nc2ccccc12 (centres undefined)	< 0.06 µg/mL	< 0.06 µg/mL	MIC90 [2]: 0.03 µg/mL (≈ 0.0593 µM); MIC90 (Enterococcus faecium): < 0.016 µg/mL; MIC90 (Staphylococcus aureus [3]): 0.5 µg/mL (≈ 0.988 µM); MIC90 [4]: 0.5 µg/mL (≈ 0.988 µM)
O=c1cc(NCCCNC2CCOc3c(Br)cc(Br)cc32)[nH]c2ccccc12 (centres undefined)	< 0.06 µg/mL	< 0.06 µg/mL	–
Oc1cc(NCCCNC2CCCc3c(Cl)cc(Cl)cc32)nc2ccccc12 (centres undefined)	< 0.06 µg/mL	0.25 µg/mL (≈ 0.6 µM)	–
CCOc1c(Br)cc(C#N)cc1CNCCCNc1cc(O)c2ccccc2n1	1 µg/mL (≈ 2.2 µM)	4 µg/mL (≈ 8.78 µM)	–
CCOc1c(C)cc(C#N)cc1CNCCCNc1cc(O)c2ccccc2n1	4 µg/mL (≈ 10.2 µM)	8 µg/mL (≈ 20.5 µM)	–
Oc1cc(NCCCNCc2cc(Br)cc(I)c2)nc2ccccc12	< 0.06 µg/mL	< 0.06 µg/mL	–
O=c1cc(NCCCNC2CCOc3c(I)cc(Cl)cc32)[nH]c2ccccc12 (centres undefined)	< 0.06 µg/mL	< 0.06 µg/mL	MIC90 (Staphylococcus aureus [3]): 0.25 µg/mL (≈ 0.49 µM); MIC90 [4]: 0.25 µg/mL (≈ 0.49 µM)
CCOc1c(C#N)cc(Br)cc1CNCCCNc1cc(O)c2ccccc2n1	0.25 µg/mL (≈ 0.549 µM)	0.5 µg/mL (≈ 1.1 µM)	–
CCOc1c(CNCCCNc2cc(O)c3ccccc3n2)cc(I)cc1COC	8 µg/mL (≈ 15.3 µM)	16 µg/mL (≈ 30.7 µM)	–
CCOc1c(I)cc(I)cc1CNCCCNc1cc(O)c2ccccc2n1	< 0.06 µg/mL	< 0.06 µg/mL	–
Oc1cc(NCCCNCc2ccccc2)nc2ccccc12	> 64 µg/mL	> 64 µg/mL	–
Oc1cc(NCCCNC2CCOc3c(Cl)cc(I)cc32)nc2ccccc12 (centres undefined)	< 0.06 µg/mL	0.13 µg/mL (≈ 0.255 µM)	–
CCOc1c(C)cc(Br)cc1CNCCCNc1cc(O)c2ccccc2n1	< 0.06 µg/mL	0.13 µg/mL (≈ 0.293 µM)	–
C=CCOc1c(Cl)cc(Cl)cc1CNCCCNc1cc(O)c2ccccc2n1	< 0.06 µg/mL	0.5 µg/mL (≈ 1.16 µM)	–
Nc1c(Br)cc(Br)cc1CNCCCNc1cc(O)c2ccccc2n1	< 0.06 µg/mL	0.13 µg/mL (≈ 0.271 µM)	–
CCc1cc(Br)cc2c1NCCC2NCCCNc1cc(O)c2ccccc2n1 (centres undefined)	< 0.06 µg/mL	0.25 µg/mL (≈ 0.549 µM)	–
Oc1cc(NCCCNCc2cc(Cl)cc(Cl)c2)nc2ccccc12	0.13 µg/mL (≈ 0.345 µM)	1 µg/mL (≈ 2.66 µM)	–
Oc1cc(NCCCNCc2cc(Br)cc(Br)c2)nc2ccccc12	< 0.06 µg/mL	0.25 µg/mL (≈ 0.537 µM)	–
O=C(NCCCNc1cc(O)c2ccccc2n1)c1ccc(Cl)c(Cl)c1	> 64 µg/mL	> 64 µg/mL	–

SMILES	MIC (Enterococcus faecalis)	MIC (Staphylococcus aureus [1])	further results
CCc1cc(I)c2c(c1)C(NCCCNc1cc(=O)c3ccccc3[nH]1)CCN2 (centres undefined)	< 0.06 µg/mL	0.25 µg/mL (≈ 0.498 µM)	MIC90 [2]: 0.25 µg/mL (≈ 0.498 µM); MIC90 (Enterococcus faecium): 0.06 µg/mL (≈ 0.119 µM); MIC90 (Staphylococcus aureus [3]): 1 µg/mL (≈ 1.99 µM); MIC90 [4]: 1 µg/mL (≈ 1.99 µM)
Cc1cc(Br)cc2c1NCCC2NCCCNc1cc(O)c2ccccc2n1 (centres undefined)	< 0.06 µg/mL	0.5 µg/mL (≈ 1.13 µM)	–
Oc1cc(NCCCNC2CCNc3c(Cl)cc(Cl)cc32)nc2ccccc12 (centres undefined)	< 0.06 µg/mL	0.13 µg/mL (≈ 0.311 µM)	–
CCOc1c(Br)cc(SC)cc1CNCCCNc1cc(O)c2ccccc2n1	< 0.06 µg/mL	< 0.06 µg/mL	MIC90 [2]: 0.5 µg/mL (≈ 1.05 µM); MIC90 (Enterococcus faecium): 0.5 µg/mL (≈ 1.05 µM); MIC90 (Staphylococcus aureus [3]): 0.25 µg/mL (≈ 0.525 µM); MIC90 [4]: 0.25 µg/mL (≈ 0.525 µM)
CCOc1c(I)cc(C)cc1CNCCCNc1cc(O)c2ccccc2n1	0.5 µg/mL (≈ 1.02 µM)	2 µg/mL (≈ 4.07 µM)	–
CCOc1c(CO)cc(I)cc1CNCCCNc1cc(O)c2ccccc2n1	32 µg/mL (≈ 63.1 µM)	32 µg/mL (≈ 63.1 µM)	–
CCOc1cc(Br)c(OCC)c(CNCCCNc2cc(O)c3ccccc3n2)c1	4 µg/mL (≈ 8.43 µM)	8 µg/mL (≈ 16.9 µM)	–
Oc1cc(NCCCNC2CCNc3c(Br)cc(Cl)cc32)nc2ccccc12 (centres undefined)	< 0.06 µg/mL	< 0.06 µg/mL	MIC90 [2]: 0.06 µg/mL (≈ 0.13 µM); MIC90 (Enterococcus faecium): < 0.016 µg/mL; MIC90 (Staphylococcus aureus [3]): 1 µg/mL (≈ 2.17 µM); MIC90 [4]: 1 µg/mL (≈ 2.17 µM)
CCOc1c(Br)cc(S(C)(=O)=O)cc1CNCCCNc1cc(O)c2ccccc2n1	8 µg/mL (≈ 15.7 µM)	> 64 µg/mL	–
CCOC(=O)c1cc(I)c(OCC)c(CNCCCNc2cc(O)c3ccccc3n2)c1	8 µg/mL (≈ 14.6 µM)	32 µg/mL (≈ 58.2 µM)	–
O=c1cc(NCCCNC2CCOc3c(Cl)cc(Cl)cc32)[nH]c2ccccc12 (centres undefined)	< 0.06 µg/mL	0.13 µg/mL (≈ 0.311 µM)	–
CCNc1c(Br)cc(Br)cc1CNCCCNc1cc(O)c2ccccc2n1	< 0.06 µg/mL	1 µg/mL (≈ 1.97 µM)	–
CNc1c(Br)cc(Br)cc1CNCCCNc1cc(O)c2ccccc2n1	0.13 µg/mL (≈ 0.263 µM)	0.5 µg/mL (≈ 1.01 µM)	–
Oc1cc(NCCCNCc2cc(Br)cc(Br)c2OCC(F)(F)F)nc2ccccc12	< 0.06 µg/mL	0.25 µg/mL (≈ 0.444 µM)	–
CCOc1c(I)cc(COC)cc1CNCCCNc1cc(O)c2ccccc2n1	2 µg/mL (≈ 3.84 µM)	8 µg/mL (≈ 15.3 µM)	–
CCOc1c(C)cc(C(F)(F)F)cc1CNCCCNc1cc(=O)c2ccccc2[nH]1	0.25 µg/mL (≈ 0.577 µM)	0.5 µg/mL (≈ 1.15 µM)	–
CCOc1c(CNCCCNc2cc(O)c3ccccc3n2)cc(I)cc1OC	< 0.06 µg/mL	2 µg/mL (≈ 3.94 µM)	–
Oc1cc(NCCCNC2CCc3c(Cl)cc(Cl)cc32)nc2ccccc12 (centres undefined)	< 0.06 µg/mL	0.25 µg/mL (≈ 0.621 µM)	–
CCOc1c(C)cc(Cl)cc1CNCCCNc1cc(O)c2ccccc2n1	< 0.06 µg/mL	0.25 µg/mL (≈ 0.625 µM)	–
Oc1cc(NCCCNCc2cc(I)cc(I)c2)nc2ccccc12	< 0.06 µg/mL	< 0.06 µg/mL	–
